According to ChEMBL document CHEMBL5226377, “Totopotensamide Congeners from a Halogenase-Inactivated Mutant” (J Nat Prod, 2023):

Key:
Format in all cases: functional, cell-based
BXPC-3 = assay: Cytotoxicity against human BXPC-3 cells assessed as inhibition of cell growth incubated for 24 hrs by MTT assay; settings: BXPC-3, 24 h
Calu-3 = assay: Cytotoxicity against human Calu-3 cells assessed as inhibition of cell growth incubated for 24 hrs by MTT assay; settings: Calu-3, 24 h
PANC-1 = assay: Cytotoxicity against human PANC-1 cells assessed as inhibition of cell growth incubated for 24 hrs by MTT assay; settings: PANC-1, 24 h
A549 = assay: Cytotoxicity against human A549 cells assessed as inhibition of cell growth incubated for 24 hrs by MTT assay; settings: A549, 24 h

SMILES	IC50 (BXPC-3)	IC50 (Calu-3)	IC50 (PANC-1)	IC50 (A549)
CC[C@H](C)[C@@H]1NC(=O)[C@H](c2cc(O)c(C)c(O)c2)NC(=O)[C@H](NC(=O)[C@H](C)NC(=O)[C@H](NC(=O)CC(=O)[C@@H](C)C[C@@H](C)C[C@@H](C)[C@H](O)[C@@H](C)C(=O)[C@@H](C)O)[C@@H](C)O)[C@@H](C)NC(=O)CNC1=O	2.3 µM	18.8 µM	6.5 µM	9.2 µM
CC[C@H](C)[C@@H]1NC(=O)[C@H](c2cc(O)c(C)c(O)c2)NC(=O)[C@H](NC(=O)[C@H](C)NC(=O)[C@H](NC(=O)CC(=O)[C@@H](C)C[C@@H](C)C[C@@H](C)[C@H](O)[C@@H](CO)[C@@H](O)CC)[C@@H](C)O)[C@@H](C)NC(=O)CNC1=O	8.2 µM	15.3 µM	6.6 µM	10.4 µM
CC[C@H](O[C@@H]1O[C@H](CO)[C@@H](OC)[C@H](O)[C@H]1O)[C@H](C)[C@@H](O)[C@H](C)C[C@H](C)C[C@H](C)C(=O)CC(=O)N[C@@H](C(=O)N[C@@H](C)C(=O)N[C@H]1C(=O)N[C@@H](c2cc(O)c(C)c(O)c2)C(=O)N[C@@H]([C@@H](C)CC)C(=O)NCC(=O)N[C@@H]1C)[C@@H](C)O	3.9 µM	12.2 µM	3.9 µM	3.7 µM
CCC[C@H](C)[C@@H](O)[C@H](C)C[C@H](C)C[C@H](C)C(=O)CC(=O)N[C@@H](C(=O)N[C@@H](C)C(=O)N[C@H]1C(=O)N[C@@H](c2cc(O)c(C)c(O)c2)C(=O)N[C@@H]([C@@H](C)CC)C(=O)NCC(=O)N[C@@H]1C)[C@@H](C)O	> 100 µM	> 100 µM	> 100 µM	> 100 µM
CCC(=O)[C@H](C)[C@@H](O)[C@H](C)C[C@H](C)C[C@H](C)C(=O)CC(=O)N[C@@H](C(=O)N[C@@H](C)C(=O)N[C@H]1C(=O)N[C@@H](c2cc(O)c(C)c(O)c2)C(=O)N[C@@H]([C@@H](C)CC)C(=O)NCC(=O)N[C@@H]1C)[C@@H](C)O	7.2 µM	14.6 µM	9.5 µM	9.7 µM
CC[C@H](C)[C@@H]1NC(=O)[C@H](c2cc(O)c(C)c(O)c2Cl)NC(=O)[C@H](NC(=O)[C@H](C)NC(=O)[C@H](NC(=O)CC(=O)[C@@H](C)C[C@@H](C)C[C@@H](C)[C@H](O)[C@@H](C)[C@@H](O[C@@H]2O[C@H](CO)[C@@H](OC)[C@H](O)[C@H]2O)[C@@H](C)O)[C@@H](C)O)[C@@H](C)NC(=O)CNC1=O	> 100 µM	> 100 µM	> 100 µM	> 100 µM
CC[C@H](C)[C@@H]1NC(=O)[C@H](c2cc(O)c(C)c(O)c2)NC(=O)[C@H](NC(=O)[C@H](C)NC(=O)[C@H](NC(=O)CC(=O)[C@@H](C)C[C@@H](C)C[C@@H](C)[C@H](O)[C@@H](C)[C@@H](O[C@@H]2O[C@H](CO)[C@@H](OC)[C@H](O)[C@H]2O)[C@@H](C)O)[C@@H](C)O)[C@@H](C)NC(=O)CNC1=O	> 100 µM	> 100 µM	> 100 µM	> 100 µM
CC[C@H](C)[C@@H]1NC(=O)[C@H](c2cc(O)c(C)c(O)c2)NC(=O)[C@H](NC(=O)[C@H](C)NC(=O)[C@H](NC(=O)CC(=O)[C@@H](C)C[C@@H](C)C[C@@H](C)[C@H](O)[C@@H](C)[C@@H](O)CC)[C@@H](C)O)[C@@H](C)NC(=O)CNC1=O	30.4 µM	> 100 µM	42.1 µM	58.8 µM
